Measured values published in PubChem BioAssay AID248 (DTP/NCI, 2004).
Where “and” joins values, the source holds several entries; their conditions need not be identical. Equal entries are not always repeated. Inconclusive results and toxic doses are left out. Cut-off read from the data, not from the text of the source: active = T/C of 150% or more; inactive = T/C below 125%.

System: L1210 leukemia ip in BDF1 mice, survival T/C
Experiment: NCI In Vivo Anticancer Drug Screen. Data for tumor model L1210 Leukemia (intraperitoneal) in B6D2F1 (BDF1) mice
Conditions: endpoint: mean survival time, higher = longer survival
Method in brief: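 Survival endpoint. Drug-treated group vs vehicle group, expressed as T divided by C. Tumor passaged by transplantation.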

[1] = dose: 50.0 mg/kg/injection, schedule: Q04DX002 (ip), vehicle: saline
[2] = dose: 200.0 mg/kg/injection, schedule: Q04DX002 (ip), vehicle: saline
[3] = dose: 100.0 mg/kg/injection, schedule: Q01DX001 (ip), vehicle: carboxymethylcellulose (CMC)
[4] = dose: 200.0 mg/kg/injection, schedule: Q01DX001 (ip), vehicle: carboxymethylcellulose (CMC)
[5] = dose: 400.0 mg/kg/injection, schedule: Q01DX001 (ip), vehicle: carboxymethylcellulose (CMC)
[6] = dose: 100.0 mg/kg/injection, schedule: Q04DX002 (ip), vehicle: Klucel (hydroxypropylcellulose) (HPC)
[7] = dose: 400.0 mg/kg/injection, schedule: Q04DX002 (ip), vehicle: Klucel (hydroxypropylcellulose) (HPC)
[8] = dose: 100.0 mg/kg/injection, schedule: Q01DX009 (ip), vehicle: Klucel (hydroxypropylcellulose) (HPC)
[9] = dose: 200.0 mg/kg/injection, schedule: Q01DX009 (ip), vehicle: Klucel (hydroxypropylcellulose) (HPC)
[10] = dose: 400.0 mg/kg/injection, schedule: Q01DX009 (ip), vehicle: Klucel (hydroxypropylcellulose) (HPC)
[11] = dose: 100.0 mg/kg/injection, schedule: Q04DX003 (ip), vehicle: saline with Tween-80
[12] = dose: 200.0 mg/kg/injection, schedule: Q04DX003 (ip), vehicle: saline with Tween-80
[13] = dose: 400.0 mg/kg/injection, schedule: Q04DX003 (ip), vehicle: saline with Tween-80
[14] = dose: 100.0 mg/kg/injection, schedule: Q04DX003 (ip), vehicle: Klucel (hydroxypropylcellulose) (HPC)
[15] = dose: 200.0 mg/kg/injection, schedule: Q04DX003 (ip), vehicle: Klucel (hydroxypropylcellulose) (HPC)
[16] = dose: 400.0 mg/kg/injection, schedule: Q04DX003 (ip), vehicle: Klucel (hydroxypropylcellulose) (HPC)
[17] = dose: 200.0 mg/kg/injection, schedule: Q04DX002 (ip), vehicle: Klucel (hydroxypropylcellulose) (HPC)

Measured: T/C

NC(=O)Cc1ccc(O)cc1
inactive: dose: 12.5 mg/kg/injection, schedule: Q04DX002 (ip), vehicle: saline with Tween-80 98 % of control | dose: 25.0 mg/kg/injection, schedule: Q04DX002 (ip), vehicle: saline with Tween-80 107 % of control | dose: 50.0 mg/kg/injection, schedule: Q04DX002 (ip), vehicle: saline with Tween-80 93 % of control and 105 % of control | [1] 113 % of control | dose: 100.0 mg/kg/injection, schedule: Q04DX002 (ip), vehicle: saline with Tween-80 98 % of control and 101 % of control | dose: 200.0 mg/kg/injection, schedule: Q04DX002 (ip), vehicle: saline with Tween-80 96 % of control and 98 % of control | [2] 113 % of control | dose: 400.0 mg/kg/injection, schedule: Q04DX002 (ip), vehicle: saline with Tween-80 101 % of control

CCCCC(=O)N/N=C/c1ccc(Cl)c(Cl)c1
inactive: [3] 88 % of control | [4] 110 % of control | [5] 91 % of control

CC(=O)OC1CCC2(C)C(CCC3C2CC(OC(C)=O)C2(C)C3CCC2C2(C)SCCS2)C1 (configuration not stated)
inactive: [6] 94 % of control | [7] 87 % of control

Cc1cccc(Cl)c1NC(=O)Nc1cccc(C(=O)O)c1
inactive: dose: 25.0 mg/kg/injection, schedule: Q01DX009 (ip), vehicle: Klucel (hydroxypropylcellulose) (HPC) 100 % of control | dose: 50.0 mg/kg/injection, schedule: Q01DX009 (ip), vehicle: Klucel (hydroxypropylcellulose) (HPC) 87 % of control | [8] 90 % of control | [9] 86 % of control | [10] 91 % of control

CN(C)N=Nc1ccc(C(=O)N/N=C/c2ccc(I)cc2)cc1
inactive: dose: 75.0 mg/kg/injection, schedule: Q04DX003 (ip), vehicle: Klucel (hydroxypropylcellulose) (HPC) 101 % of control | dose: 150.0 mg/kg/injection, schedule: Q04DX003 (ip), vehicle: Klucel (hydroxypropylcellulose) (HPC) 97 % of control | dose: 300.0 mg/kg/injection, schedule: Q04DX003 (ip), vehicle: Klucel (hydroxypropylcellulose) (HPC) 89 % of control

CC(C)(C)C(C(=O)O)C(=O)O
inactive: [1] 98 % of control | dose: 100.0 mg/kg/injection, schedule: Q04DX002 (ip), vehicle: saline 98 % of control | [2] 92 % of control

Cc1ccc(S(=O)(=O)Nc2c(N)nc(N)nc2-c2ccccc2)cc1
inactive: dose: 80.0 mg/kg/injection, schedule: Q01DX001 (ip), vehicle: Klucel (hydroxypropylcellulose) (HPC) 96 % of control | dose: 160.0 mg/kg/injection, schedule: Q01DX001 (ip), vehicle: Klucel (hydroxypropylcellulose) (HPC) 94 % of control | dose: 320.0 mg/kg/injection, schedule: Q01DX001 (ip), vehicle: Klucel (hydroxypropylcellulose) (HPC) 103 % of control

CCN(CC)CCSc1nc2ccccc2[nH]1
inactive: dose: 55.0 mg/kg/injection, schedule: Q01DX Z (ip), vehicle: saline 104 % of control | dose: 83.0 mg/kg/injection, schedule: Q01DX Z (ip), vehicle: saline 91 % of control | dose: 125.0 mg/kg/injection, schedule: Q01DX Z (ip), vehicle: saline 94 % of control

CCCCCCCCCCCSCCCCCCCCCCC
inactive: [11] 113 % of control | [12] 94 % of control | [13] 91 % of control

O=c1ccn(Cc2cccc(OCCCc3ccccc3)c2)c(=O)[nH]1
inactive: [8] 96 % of control | [9] 102 % of control | [10] 97 % of control

COc1ccc(-c2nnc(-c3ccc(OC)c(Cl)c3)nn2)cc1Cl
inactive: dose: 100.0 mg/kg/injection, schedule: Q01DX009 (ip), vehicle: saline with Tween-80 86 % of control | dose: 200.0 mg/kg/injection, schedule: Q01DX009 (ip), vehicle: saline with Tween-80 86 % of control

Cc1c(Cl)c(N(C)S(=O)(=O)c2ccccc2)c(C)c(Cl)c1N(C)S(=O)(=O)c1ccccc1
inactive: [14] 103 % of control | [15] 96 % of control | [16] 95 % of control

CC(=O)C(C)[P+](c1ccccc1)(c1ccccc1)c1ccccc1 (configuration not stated)
inactive: dose: 6.25 mg/kg/injection, schedule: Q01DX009 (ip), vehicle: water 104 % of control | dose: 12.5 mg/kg/injection, schedule: Q01DX009 (ip), vehicle: water 95 % of control | dose: 12.5 mg/kg/injection, schedule: Q04DX003 (ip), vehicle: water 102 % of control | dose: 25.0 mg/kg/injection, schedule: Q01DX009 (ip), vehicle: water 102 % of control | dose: 25.0 mg/kg/injection, schedule: Q04DX003 (ip), vehicle: water 100 % of control | dose: 50.0 mg/kg/injection, schedule: Q01DX009 (ip), vehicle: water 96 % of control

O=C(O)COc1ccc(F)c(F)c1
inactive: [6] 90 % of control | [17] 104 % of control | [7] 93 % of control

O=C(O)c1ccc(/C=N/NC(=O)C(O)(c2ccccc2)c2ccccc2)cc1
inactive: [3] 108 % of control | [4] 108 % of control | [5] 108 % of control

CC1(C)C2CCC1C(O)C2 (configuration not stated)
inactive: dose: 75.0 mg/kg/injection, schedule: Q01DX009 (ip), vehicle: saline 104 % of control | dose: 150.0 mg/kg/injection, schedule: Q01DX009 (ip), vehicle: saline 103 % of control | dose: 300.0 mg/kg/injection, schedule: Q01DX009 (ip), vehicle: saline 94 % of control

Cc1nc(N)[nH]c(=O)c1CCCc1ccccc1
inactive: dose: 100.0 mg/kg/injection, schedule: Q01DX009 (ip), vehicle: gum acacia 103 % of control | dose: 200.0 mg/kg/injection, schedule: Q01DX009 (ip), vehicle: gum acacia 94 % of control | dose: 400.0 mg/kg/injection, schedule: Q01DX009 (ip), vehicle: gum acacia 95 % of control

CSc1cc(N)nc(N)c1[N+](=O)[O-]
inactive: dose: 100.0 mg/kg/injection, schedule: Q01DX001 (ip), vehicle: Klucel (hydroxypropylcellulose) (HPC) 99 % of control | dose: 200.0 mg/kg/injection, schedule: Q01DX001 (ip), vehicle: Klucel (hydroxypropylcellulose) (HPC) 96 % of control | dose: 400.0 mg/kg/injection, schedule: Q01DX001 (ip), vehicle: Klucel (hydroxypropylcellulose) (HPC) 94 % of control

O=C(Nc1ccc(F)c(Cl)c1)OCC1CCCO1 (configuration not stated)
inactive: dose: 6.25 mg/kg/injection, schedule: Q01DX009 (ip), vehicle: Klucel (hydroxypropylcellulose) (HPC) 92 % of control | dose: 12.5 mg/kg/injection, schedule: Q01DX009 (ip), vehicle: Klucel (hydroxypropylcellulose) (HPC) 89 % of control | [14] 94 % of control | [15] 89 % of control

ClCc1c(CCl)c2c(c3c1CCCC3)CCCC2
inactive: [14] 100 % of control | [15] 100 % of control | [16] 103 % of control

CN1C(C(=O)c2ccccc2)C1C(=O)c1ccccc1 (configuration not stated)
inactive: dose: 75.0 mg/kg/injection, schedule: Q04DX003 (ip), vehicle: carboxymethylcellulose (CMC) 112 % of control | dose: 150.0 mg/kg/injection, schedule: Q04DX003 (ip), vehicle: carboxymethylcellulose (CMC) 102 % of control | dose: 300.0 mg/kg/injection, schedule: Q04DX003 (ip), vehicle: carboxymethylcellulose (CMC) 102 % of control

C=CCNC(=O)Oc1cccc(NC(=O)OCC=C)c1
inactive: [11] 96 % of control | [12] 96 % of control | [13] 102 % of control

COc1cc(NC(=O)Nc2cc([N+](=O)[O-])ccc2C)c(OC)cc1Cl
inactive: [6] 106 % of control | [17] 97 % of control | [7] 95 % of control

O=S(=O)(Cc1ccc(Cl)cc1)Cc1ccc(Cl)cc1
inactive: dose: 100.0 mg/kg/injection, schedule: Q01DX009 (ip), vehicle: saline sonified 93 % of control | [14] 95 % of control | dose: 200.0 mg/kg/injection, schedule: Q01DX009 (ip), vehicle: saline sonified 93 % of control | [15] 92 % of control | dose: 400.0 mg/kg/injection, schedule: Q01DX009 (ip), vehicle: saline sonified 93 % of control | [16] 103 % of control

CC(=O)OC1CCC(NC(=O)NCCCl)CC1 (configuration not stated)
inactive: dose: 100.0 mg/kg/injection, schedule: Q01DX001 (ip), vehicle: other 96 % of control | dose: 200.0 mg/kg/injection, schedule: Q01DX001 (ip), vehicle: other 98 % of control | dose: 400.0 mg/kg/injection, schedule: Q01DX001 (ip), vehicle: other 88 % of control
